pEC50: −log10 of the molar value.
Tested on: RSV (Long)
Experiment: RSV cytopathic effect (CPE)-based viral replication assay
Format: cell-based, respiratory syncytial virus (RSV)
Conditions: human respiratory syncytial virus, HEp-2, 72 h, HEp-2 cells infected with RSV Long at MOI 0.015; 3 days at 37° C.; cell viability by CellTiter-Glo luminescence; read-out: EC50 (nm)
Method in brief: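 HEp-2 cells, 2,500 per well in DMEM with 2% heat-inactivated FBS, treated with 10-point compound dilutions and infected with RSV Long at MOI 0.015. After 3 days at 37 °C, 5% CO2, viability read by CellTiter-Glo luminescence; EC50 derived from CPE data.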

pEC50	SMILES
6.85	O=c1n(Cc2ncc3cccc(F)c3c2CCCCO)c2cnccc2n1C1CC1 [Example 31, 1-Cyclopropyl-3-((5-fluoro-4-(4-hydroxybutyl)isoquinolin-3-yl)methyl)-1H-imidazo[4,5-c]pyridin-2(3H)-one]
8.52	CS(=O)(=O)N1CCC2(CC1)C(=O)N(Cc1ncc3ccccc3c1-c1ccc(C(N)C(F)(F)F)nc1)c1cnccc12 (centres unmarked) [Example 158c, 1′-((4-(6-(1-amino-2,2,2-trifluoroethyl)pyridin-3-yl)isoquinolin-3-yl)methyl)-1-(methylsulfonyl)spiro[piperidine-4,3′-pyrrolo[2,3-c]pyridin]-2′(1′H)-one]
8.22	CC1(S(=O)(=O)N2CCC3(CC2)C(=O)N(Cc2ncc4ccccc4c2CCCCO)c2cnccc23)CC1 [Example 54, 1′-((4-(4-hydroxybutyl)isoquinolin-3-yl)methyl)-1-((1-methylcyclopropyl)sulfonyl)spiro[piperidine-4,3′-pyrrolo[2,3-c]pyridin]-2′(1′H)-one]
7.70	NC1(C(=O)N2CC3(C2)C(=O)N(Cc2ncc4ccccc4c2-c2cncc(F)c2)c2ccccc23)CC1 [Example 94, 1-(1-aminocyclopropanecarbonyl)-1′-((4-(5-fluoropyridin-3-yl)isoquinolin-3-yl)methyl)spiro[azetidine-3,3′-indolin]-2′-one]
7.70	O=C(N1CC2(C1)C(=O)N(Cc1ncc3ccccc3c1-c1cccnc1)c1ccccc12)C(F)(F)F [Example 128, 1′-((4-(Pyridin-3-yl)isoquinolin-3-yl)methyl)-1-(2,2,2-trifluoroacetyl)spiro[azetidine-3,3′-indolin]-2′-one]
8.62	CN(C)C(=O)c1ccc(-c2c(CN3C(=O)C4(CN(C(=O)C5(N)CC5)C4)c4ccccc43)ncc3ccccc23)cn1 [Example 121b, 5-(3-((1-(1-Aminocyclopropanecarbonyl)-2′-oxospiro[azetidine-3,3′-indolin]-1′-yl)methyl)isoquinolin-4-yl)-N,N-dimethylpicolinamide]
7.70	O=c1n(Cc2ncc3ccccc3c2CCCCO)c2cnccc2n1-c1ccc(F)cc1 [Example 4c, 1-(4-fluorophenyl)-3-((4-(4-hydroxybutyl)isoquinolin-3-yl)methyl)-1H-imidazo[4,5-c]pyridin-2(3H)-one]
8.82	CNC1(C(=O)N2CC3(C2)C(=O)N(Cc2ncc4ccccc4c2-c2ccc(C#N)nc2)c2ccccc23)CC1 [Example 63, 5-(3-((1-(1-(Methylamino)cyclopropanecarbonyl)-2′-oxospiro[azetidine-3,3′-indolin]-1′-yl)methyl)isoquinolin-4-yl)picolinonitrile]
8.70	COC(=O)N1CCC(n2c(=O)n(Cc3ncc4ccccc4c3CCCCO)c3cnccc32)CC1 [Example 2d, Methyl 4-(3-((4-(4-hydroxybutyl)isoquinolin-3-yl)methyl)-2-oxo-2,3-dihydro-1H-imidazo[4,5-c]pyridin-1-yl)piperidine-1-carboxylate]
8.52	NC1(CNC(=O)N2CC3(C2)C(=O)N(Cc2ncc4ccccc4c2-c2cncc(F)c2)c2ccccc23)CC1 [Example 2004]
8.59	CS(=O)(=O)N1CCC2(CC1)C(=O)N(Cc1ncc3ccccc3c1-c1cn[nH]c1)c1cnccc12 [Example 2029]
8.26	CS(=O)(=O)Nc1ccc(-c2c(CN3C(=O)C4(CN(C(=O)C5(N)CC5)C4)c4ccccc43)ncc3ccccc23)cc1 [Example 114c, N-(4-(3-((1-(1-aminocyclopropanecarbonyl)-2′-oxospiro[azetidine-3,3′-indolin]-1′-yl)methyl)isoquinolin-4-yl)phenyl)methanesulfonamide]
9.12	COC(=O)N1CC2(C1)C(=O)N(Cc1ncc3ccccc3c1-c1ccc(S(N)(=O)=O)cc1)c1ccccc12 [Example 99, Methyl 2′-oxo-1′-((4-(4-sulfamoylphenyl)isoquinolin-3-yl)methyl)spiro[azetidine-3,3′-indoline]-1-carboxylate]
9.46	CS(=O)(=O)N1CCC2(CC1)C(=O)N(Cc1ncc3cc(Cl)ccc3c1-c1ccncc1)c1cnccc12 [Example 2009]
8.60	CS(=O)(=O)N1CC2(C1)C(=O)N(Cc1ncc3ccccc3c1-c1ccc(C#N)cc1)c1ccccc12 [Example 76]
8.22	NC1(C(=O)N2CC3(C2)C(=O)N(Cc2ncc4ccccc4c2-c2ccc(S(N)(=O)=O)cc2)c2ccccc23)CC1 [Example 125, 4-(3-((1-(1-aminocyclopropanecarbonyl)-2′-oxospiro[azetidine-3,3′-indolin]-1′-yl)methyl)isoquinolin-4-yl)benzenesulfonamide]
8.62	COC(=O)N1CCC(n2c(=O)n(Cc3ncc4cc(CN)ccc4c3CCCCO)c3cnccc32)CC1 [Example 24, Methyl 4-(3-((7-(aminomethyl)-4-(4-hydroxybutyl)isoquinolin-3-yl)methyl)-2-oxo-2,3-dihydro-1H-imidazo[4,5-c]pyridin-1-yl)piperidine-1-carboxylate]
8.66	CC(C)(C)OC(=O)N1CC2(C1)C(=O)N(Cc1ncc3ccccc3c1CCCCO)c1ccccc12 [Example 36c, tert-butyl 1′-((4-(4-hydroxybutyl)isoquinolin-3-yl)methyl)-2′-oxospiro[azetidine-3,3′-indoline]-1-carboxylate]
8.19	CNC(=O)N1CC2(C1)C(=O)N(Cc1ncc3ccccc3c1CCCCO)c1ccccc12 [Example 38, 1′-((4-(4-hydroxybutyl)isoquinolin-3-yl)methyl)-N-methyl-2′-oxospiro[azetidine-3,3′-indoline]-1-carboxamide]
8.42	CC(C)(O)C(=O)N1CC2(C1)C(=O)N(Cc1ncc3ccccc3c1-c1cccnc1)c1ccccc12 [Example 118, 1-(2-hydroxy-2-methylpropanoyl)-1′-((4-(pyridin-3-yl)isoquinolin-3-yl)methyl)spiro[azetidine-3,3′-indolin]-2′-one]
8.02	CC1(n2c(=O)n(Cc3ncc4ccccc4c3-c3ccc(C4(N)CC4)nc3)c3cnccc32)CC1 [Example 2001]
7.74	O=C1N(Cc2ncc3ccccc3c2CCCCO)c2cnccc2C12CC2 [Example 49, 1′-((4-(4-hydroxybutyl)isoquinolin-3-yl)methyl)spiro[cyclopropane-1,3′-pyrrolo[2,3-c]pyridin]-2′(1′H)-one]
7.06	COC(=O)N1CCC2(CC1)C(=O)N(Cc1ncc3ccccc3c1CCCS(C)(=O)=O)c1cnccc12 [Example 11c, Methyl 1′-((4-(3-(methylsulfonyl)propyl)isoquinolin-3-yl)methyl)-2′-oxo-1′,2′-dihydrospiro[piperidine-4,3′-pyrrolo[2,3-c]pyridine]-1-carboxylate]
6.16	NC1(C(=O)N2CCC3(CC2)C(=O)N(Cc2ncc4ccccc4c2-c2ncco2)c2cnccc23)CC1 [Example 2021]

Same assay, conditions: human respiratory syncytial virus, HEp-2, 72 h, read-out: EC50 (nm)

SMILES	pEC50
COC(=O)N1CCC2(CC1)C(=O)N(Cc1ncc3ccccc3c1-c1cccnc1)c1cnccc12 [Example 144, Methyl 2′-oxo-1′-((4-(pyridin-3-yl)isoquinolin-3-yl)methyl)-1′,2′-dihydrospiro[piperidine-4,3′-pyrrolo[2,3-c]pyridine]-1-carboxylate]	8.96
COC(=O)N1CC2(C1)C(=O)N(Cc1ncc3ccccc3c1-c1ccc(C#N)cn1)c1ccccc12 [Example 101, Methyl 1′-((4-(5-cyanopyridin-2-yl)isoquinolin-3-yl)methy)-2′-oxospiro[azetidine-3,3′-indoline]-1-carboxylate]	7.96

Source: patent US20190002436A1, “RESPIRATORY SYNCYTIAL VIRUS INHIBITORS” (MEDIVIR AB, priority 2015, published 2019)
